Test [1] addresses Prothrombin (Homo sapiens, UniProt P00734). Put plainly: In vitro inhibition of thrombin.
Test [2] concerns the target Serine protease 1 (Homo sapiens, UniProt P07477). Put plainly: In vitro inhibition of trypsin.
Test [3] addresses Coagulation factor X (Homo sapiens, UniProt P00742). Put plainly: In vitro inhibition of Coagulation factor X.

Molecules are shown by their SMILES. Bounds are passed on as bounds.

Coagulation factor X, sequence (P00742 41-179 limits assumed): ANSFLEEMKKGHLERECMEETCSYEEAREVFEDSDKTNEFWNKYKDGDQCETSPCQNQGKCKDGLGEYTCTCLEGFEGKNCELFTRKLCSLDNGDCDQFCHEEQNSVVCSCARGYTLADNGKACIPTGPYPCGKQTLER
Coagulation factor X, sequence (P00742 235-488 limits assumed): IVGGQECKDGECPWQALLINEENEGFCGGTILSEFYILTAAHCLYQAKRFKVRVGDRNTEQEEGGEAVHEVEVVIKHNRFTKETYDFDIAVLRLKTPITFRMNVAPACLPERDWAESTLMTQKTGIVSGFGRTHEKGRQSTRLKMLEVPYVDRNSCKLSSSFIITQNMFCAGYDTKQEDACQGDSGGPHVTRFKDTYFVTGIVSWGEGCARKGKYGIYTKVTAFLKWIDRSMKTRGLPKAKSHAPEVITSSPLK
Serine protease 1, sequence (P07477 whole entry): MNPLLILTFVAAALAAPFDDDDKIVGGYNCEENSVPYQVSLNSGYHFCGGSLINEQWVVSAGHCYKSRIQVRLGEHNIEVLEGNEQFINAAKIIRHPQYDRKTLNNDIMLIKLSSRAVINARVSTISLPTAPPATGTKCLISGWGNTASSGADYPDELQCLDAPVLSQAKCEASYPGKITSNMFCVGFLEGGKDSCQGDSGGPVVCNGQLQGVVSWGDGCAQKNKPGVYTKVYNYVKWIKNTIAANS

Turning to `COC(=O)CC(CCc1ccc(N)cc1)c1cccc(C(=N)N)c1` (centres undefined), the values for the inhibitory constant (Ki) in test [1], in test [2] and in test [3] were 7700 nM, 1200 nM and 5000 nM, respectively.

Take `COC(=O)CNC(=O)CC(CCc1ccc(C(=N)N)cc1)c1cccc(C(=N)N)c1` (centres undefined): the inhibition constant Ki in test [1] was found to be 12600 nM; in test [3], 2400 nM.

Take `CC(C)OC(=O)CC(CCc1ccc(C(=N)N)cc1)c1cccc(C(=N)N)c1` (centres undefined): the inhibition constant (Ki) in test [1] was found to be 1540 nM; in test [2], 140 nM; in test [3], 192 nM.

`COC(=O)CC(CCCCc1ccc(N=C(N)N)cc1)c1cccc(C(=N)N)c1` (centres undefined): the Ki in test [1] stood at 3300 nM; in test [2] it was 760 nM; in test [3], 57 nM.

On to `CCOC(=O)CC(CCc1cccc(C(=N)N)c1)c1ccc(C(=N)N)cc1` (centres undefined), for which the Ki in test [1] stood at 3430 nM; in test [3] it was 1640 nM.

As for `N=C(N)c1ccc(CCC(=O)c2cccc(C(=N)N)c2)cc1`, the Ki was 4400 nM in test [1] and 5100 nM in test [3].

Consider `COC(=O)CC(CCc1ccc(C(N)=O)cc1)c1cccc(C(=N)N)c1` (centres undefined), for which the Ki worked out at 6500 nM in test [1], 870 nM in test [2] and 550 nM in test [3].

Take `COC(=O)CC(CCc1ccc(C(=O)OC)cc1)c1cccc(C(=N)N)c1` (centres undefined): the Ki worked out at 3600 nM in test [1], 330 nM in test [2] and 2800 nM in test [3].

Consider `COC(=O)CC(CCc1ccc(C(=N)N)cc1)c1cccc(C(=N)N)c1` (centres undefined), for which the inhibition constant (Ki) in test [1] was determined as 1200 nM; in test [2], 99 nM; in test [3], 34 nM.

With `N=C(N)c1ccc(CCC(CC(=O)N2CCCC2)c2cccc(C(=N)N)c2)cc1` (centres undefined), the inhibitory constant (Ki) turned out to be 2800 nM in test [1], 440 nM in test [2] and 1150 nM in test [3].

In the case of `CCOC(=O)CC(CCc1ccccc1)c1cccc(C(=N)N)c1` (centres undefined), the inhibition constant Ki in test [1] was over 2100 nM; in test [3], 2900 nM.

With `CNC(=O)CC(CCc1ccc(C(=N)N)cc1)c1cccc(C(=N)N)c1` (centres undefined), the inhibitory constant (Ki) in test [1] turned out to be 8000 nM; in test [2] it was 820 nM; in test [3], 940 nM.

For `CCOC(=O)CC(CCc1ccc(C(=N)N)cc1)c1ccccc1` (centres undefined), the results for the inhibitory constant (Ki) in test [1] and in test [3] were 6200 nM and over 30000 nM, respectively.

For the molecule `N=C(N)c1ccc(CCC(CC(=O)O)c2cccc(C(=N)N)c2)cc1` (centres undefined), the results for the inhibition constant Ki in test [1] and in test [2] were over 4200 nM and over 1200 nM, respectively.

For `CONC(=O)CC(CCc1ccc(C(=N)N)cc1)c1cccc(C(=N)N)c1` (centres undefined), the figures for the Ki in test [1] and in test [3] were 19600 nM and 2400 nM, respectively.

As for `COC(=O)CC(CCc1cccc(C(=N)N)c1)c1cccc(C(=N)N)c1` (centres undefined), the Ki in test [1] amounted to 8500 nM; in test [3] it was 2800 nM.

As to `COC(=O)CC(CCc1ccc(NS(=O)(=O)c2ccccc2)cc1)c1cccc(C(=N)N)c1` (centres undefined), the Ki in test [1] turned out to be 1750 nM; in test [2] it was 610 nM; in test [3], 1100 nM.

As for `CCOC(=O)CC(CCc1ccc(C(=N)N)cc1)c1ccc(C(=N)N)cc1` (centres undefined), the inhibition constant (Ki) is 1200 nM in test [1] and 22900 nM in test [3].

On to `COC(=O)CC(CCc1ccc(N=C(N)N)cc1)c1cccc(C(=N)N)c1` (centres undefined), for which the Ki in test [1] came out at 3100 nM; in test [2] it was 96 nM; in test [3], 9 nM.

On to `COC(=O)CC(CCc1ccc(NS(C)(=O)=O)cc1)c1cccc(C(=N)N)c1` (centres undefined), for which the Ki in test [1] is 3100 nM; in test [2] it was 110 nM; in test [3], 654 nM.

For the molecule `CCOC(=O)CC(CCc1ccc(C(=N)N)cc1)c1cccc(C(=N)N)c1` (centres undefined), the Ki in test [1] came out at 1100 nM; in test [2] it was 110 nM; in test [3], 42 nM.

Values taken from ChEMBL document CHEMBL1131205, “Rational design and synthesis of novel, potent bis-phenylamidine carboxylate factor Xa inhibitors” (J Med Chem, 1998).
